Test results as given in ChEMBL document CHEMBL3885861, “Open TG-GATES”.

Species on record: Rattus norvegicus
Test: Open TG-GATES - Regimen: Single
Assay type: toxicity, organism-based, Sprague-Dawley
Design: regimen Single, gender Male, age 6 weeks
Conditions: in vivo, po, 300 mg/kg, route gavage, dose level Middle; for APTT / Bas / Eos / Fbg / Hb / Ht / Lym / MCH / MCHC / MCV / Mono / Neu / PT / Plat / RBC / Ret / WBC: tissue Blood; for KIDNEY_L / KIDNEY_R / KIDNEY_TOTAL: tissue Kidney; for LIVER: tissue Liver; for A/G / ALP / ALT / AST / BUN / CRE / Ca / Cl / DBIL / GLC / IP / K / LDH / Na / PL / RALB / TBIL / TC / TG / TP / gamma-GTP: tissue Plasma

CCOC(=O)CCC(=O)O[C@H]1[C@H](O[C@@H]2[C@@H](C)[C@H](O[C@H]3C[C@@](C)(OC)[C@@H](O)[C@H](C)O3)[C@@H](C)C(=O)O[C@H](CC)[C@@](C)(O)[C@H](O)[C@@H](C)C(=O)[C@H](C)C[C@@]2(C)O)O[C@H](C)C[C@@H]1N(C)C [ERYTHROMYCIN ETHYLSUCCINATE]
TERMINAL_BW (3 h): 220.4 g
APTT (3 h): 21.7 s
Bas (3 h): 0%
Eos (3 h): 1%
Fbg (3 h): 294.4 mg/dL
Hb (3 h): 12.8 g/dL
Ht (3 h): 38.6%
Lym (3 h): 75.4%
MCH (3 h): 21.2 pg
MCHC (3 h): 33.2%
MCV (3 h): 63.8 fL
Mono (3 h): 2.6%
Neu (3 h): 19.8%
PT (3 h): 15.7 s
Plat (3 h): 123.6 x10_4/uL
RBC (3 h): 606.2 x10_4/ul
Ret (3 h): 7.9%
WBC (3 h): 80.1 x10_2/uL
KIDNEY_L (3 h): 1 g
KIDNEY_R (3 h): 1 g
KIDNEY_TOTAL (3 h): 2.1 g
LIVER (3 h): 10 g
A/G (3 h): 1.2
ALP (3 h): 1689.6 IU/L
ALT (3 h): 42.4 IU/L
AST (3 h): 74.2 IU/L
BUN (3 h): 11.6 mg/dL
CRE (3 h): 0.2 mg/dL
Ca (3 h): 10.5 mg/dL
Cl (3 h): 103.8 meq/L
DBIL (3 h): 0.004 mg/dL
GLC (3 h): 179 mg/dL
IP (3 h): 9.1 mg/dL
K (3 h): 4.1 meq/L
LDH (3 h): 141 IU/L
Na (3 h): 138.6 meq/L
PL (3 h): 149 mg/dL
RALB (3 h): 2.9 g/dL
TBIL (3 h): 0.026 mg/dL
TC (3 h): 76.4 mg/dL
TG (3 h): 66.4 mg/dL
TP (3 h): 5.3 g/dL
gamma-GTP (3 h): 1 IU/L
TERMINAL_BW (6 h): 216.3 g
APTT (6 h): 22.3 s
Bas (6 h): 0%
Eos (6 h): 0.8%
Fbg (6 h): 318.4 mg/dL
Hb (6 h): 13.1 g/dL
Ht (6 h): 39.8%
Lym (6 h): 77.8%
MCH (6 h): 20.8 pg
MCHC (6 h): 32.8%
MCV (6 h): 63.5 fL
Mono (6 h): 3.8%
Neu (6 h): 16.4%
PT (6 h): 15.7 s
Plat (6 h): 115 x10_4/uL
RBC (6 h): 627.8 x10_4/ul
Ret (6 h): 8.7%
WBC (6 h): 87.9 x10_2/uL
KIDNEY_L (6 h): 1 g
KIDNEY_R (6 h): 1 g
KIDNEY_TOTAL (6 h): 2 g
LIVER (6 h): 9.2 g
A/G (6 h): 1.2
ALP (6 h): 1767.2 IU/L
ALT (6 h): 43.4 IU/L
AST (6 h): 72.8 IU/L
BUN (6 h): 10.8 mg/dL
CRE (6 h): 0.2 mg/dL
Ca (6 h): 10.6 mg/dL
Cl (6 h): 104 meq/L
DBIL (6 h): 0 mg/dL
GLC (6 h): 180 mg/dL
IP (6 h): 10.1 mg/dL
K (6 h): 4.2 meq/L
LDH (6 h): 160.2 IU/L
Na (6 h): 138.2 meq/L
PL (6 h): 140 mg/dL
RALB (6 h): 2.9 g/dL
TBIL (6 h): 0.032 mg/dL
TC (6 h): 75.6 mg/dL
TG (6 h): 50.6 mg/dL
TP (6 h): 5.4 g/dL
gamma-GTP (6 h): 1.2 IU/L
TERMINAL_BW (9 h): 210.5 g
APTT (9 h): 22.3 s
Bas (9 h): 0%
Eos (9 h): 1.2%
Fbg (9 h): 318.4 mg/dL
Hb (9 h): 13.4 g/dL
Ht (9 h): 40.5%
Lym (9 h): 79%
MCH (9 h): 20.8 pg
MCHC (9 h): 33%
MCV (9 h): 62.9 fL
Mono (9 h): 2.6%
Neu (9 h): 15.8%
PT (9 h): 15.6 s
Plat (9 h): 125.3 x10_4/uL
RBC (9 h): 645.4 x10_4/ul
Ret (9 h): 8%
WBC (9 h): 77.8 x10_2/uL
KIDNEY_L (9 h): 1 g
KIDNEY_R (9 h): 1 g
KIDNEY_TOTAL (9 h): 2 g
LIVER (9 h): 8.8 g
A/G (9 h): 1.2
ALP (9 h): 1386.8 IU/L
ALT (9 h): 33.8 IU/L
AST (9 h): 62.6 IU/L
BUN (9 h): 10 mg/dL
CRE (9 h): 0.2 mg/dL
Ca (9 h): 10.5 mg/dL
Cl (9 h): 105.2 meq/L
DBIL (9 h): 0 mg/dL
GLC (9 h): 174.4 mg/dL
IP (9 h): 9.4 mg/dL
K (9 h): 4.2 meq/L
LDH (9 h): 170.6 IU/L
Na (9 h): 138.8 meq/L
PL (9 h): 136 mg/dL
RALB (9 h): 3 g/dL
TBIL (9 h): 0.03 mg/dL
TC (9 h): 75.2 mg/dL
TG (9 h): 49.8 mg/dL
TP (9 h): 5.5 g/dL
gamma-GTP (9 h): 1.2 IU/L
TERMINAL_BW (24 h): 226.7 g
APTT (24 h): 20.4 s
Bas (24 h): 0%
Eos (24 h): 1%
Fbg (24 h): 319.8 mg/dL
Hb (24 h): 13.7 g/dL
Ht (24 h): 41.1%
Lym (24 h): 85%
MCH (24 h): 21.1 pg
MCHC (24 h): 33.4%
MCV (24 h): 63.3 fL
Mono (24 h): 2.4%
Neu (24 h): 10.8%
PT (24 h): 16 s
Plat (24 h): 117.1 x10_4/uL
RBC (24 h): 649.4 x10_4/ul
Ret (24 h): 7%
WBC (24 h): 88.2 x10_2/uL
KIDNEY_L (24 h): 1 g
KIDNEY_R (24 h): 1 g
KIDNEY_TOTAL (24 h): 2 g
LIVER (24 h): 9.8 g
A/G (24 h): 1.2
ALP (24 h): 1484 IU/L
ALT (24 h): 37.4 IU/L
AST (24 h): 69.6 IU/L
BUN (24 h): 15.4 mg/dL
CRE (24 h): 0.1 mg/dL
Ca (24 h): 10.4 mg/dL
Cl (24 h): 106.8 meq/L
DBIL (24 h): 0.002 mg/dL
GLC (24 h): 195.4 mg/dL
IP (24 h): 8.1 mg/dL
K (24 h): 4.3 meq/L
LDH (24 h): 174.8 IU/L
Na (24 h): 142 meq/L
PL (24 h): 135.2 mg/dL
RALB (24 h): 2.9 g/dL
TBIL (24 h): 0.016 mg/dL
TC (24 h): 75.2 mg/dL
TG (24 h): 87.6 mg/dL
TP (24 h): 5.4 g/dL
gamma-GTP (24 h): 1.2 IU/L
